Usually AUC(0-inf) stands for total exposure, with the tail of the curve extrapolated. The AUC(0-t) is the area under the concentration-time curve up to a stated or last time point. Low readings indicate less exposure, high ones more exposure. Usually Cmax stands for the peak of the concentration-time curve. Usually Tmax stands for the time at which the peak concentration occurs. As usually defined, the half-life is the time needed for the level to fall by half in the phase considered.

The values below come from publication PMC9058666 (RSC Advances, 2020).

For data set [1] the following is noted: SD, rat, in vivo, po.
The nature of a further data set: in vivo. To be noted: SD, rat, po, 50 mg/kg.

For `O=c1[nH]cc(F)c(=O)[nH]1` [5-FU, 5-Fluorouracil], in data set [1], the “Cmax of 5-FU (from Fig. 7, mean plasma concentration-time profile)” value was 20000 ng/mL and the “time at which Cmax was reached (from Fig. 7)” value was 0.5 h. Further, in the data set “in vivo”, the area under the curve AUC(0-inf) is 54600 ± 15000 ng·h/mL, the AUC(0-t) turned out to be 50400 ± 10800 ng·h/mL, the highest concentration (Cmax) came to 21000 ± 1980 ng/mL and the Tmax is 0.667 ± 0.289 h. In “in vivo”, this compound had a half-life of 1.47 ± 0.449 h.
